This experiment has as its system multidrug‐resistant A. baumannii. In words: Peptide MIC, standard microbroth dilution assay. Type of experiment: cell-based, Acinetobacter baumannii. The settings on record: result in words, based on MIC. In general terms: Broth dilution looks for growth in wells or tubes with falling amounts of substance.

Consider 1 sequence from paper PMC7891380 (Chemical Biology & Drug Design, 2020).

With “LKIPGFVKDTLKKVAKGIFSAVAGAMTPS [Hymenochirin‐2B]”, the “potency against multidrug‐resistant A. baumannii” value is given as “high potency”.
